# Reference: US11478451B1, “Macrocyclic chlorine substituted indole derivatives” (Bayer Aktiengesellschaft, priority 2017, dated 2022)
# Where a name gives a salt, the structure may show the parent alone. Read-outs that look alike come from different tables or passages of the source.
# Legend:
# [1] = system: SUDHL5 cells; experiment: Induction of caspase-3/7 activity (Caspase-Glo 3/7), SUDHL5; assay type: cell-based; conditions: EC50, median, SUDHL5, 3 h treatment
# Outline: (§1)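 Read-out: Caspase-Glo 3/7 signal, background-corrected against medium-only wells, taken after cells had been incubated with compounds for 3 h at 37 °C.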
# [2] = system: AMO-1 cells; experiment: Antiproliferation assay (CellTiter-Glo, 72 h), AMO-1; assay type: cell-based; conditions: IC50, median, AMO-1, 72 h, read-out: Antiproli AMO-1 [M] median
# Outline: (§2)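 Treated cells sat 72 h in a humidified 37 °C incubator, outer wells unused, before CellTiter-Glo reagent and a 10 min wait preceded luminescence reading; identical measurement of a parallel day 0 plate defined time zero.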
# [3] = system: SUDHL10 cells; experiment: Induction of cytotoxicity (CellTiter-Glo, 5 h), SUDHL10; conditions: SUDHL10, 5 h
# Description: (§3) Therefore, cytotoxicity assays were run in parallel in SUDHL5 and SUDHL10 cells.
# (§4) The different cell lines were plated in culture medium (RPMI 1640 [GIBCO #22400-089] supplemented with 10% Fetal Bovine Serum) at a density of 3,300 cells in 30 μL/well in a sterile, solid black, flat bottom, polystyrene, TC-treated 384-well microplate (Corning #3571) using Multidrop Combi Reagent Dispenser. As a control, medium without cells was also added to the plate. Cells were incubated in a humidified incubator at 37° C. overnight. […] Rim wells were excluded. The cells were incubated for 5 h hours in a humidified incubator at 37° C. After this incubation, 30 μL of CellTiter-Glo® Luminescent Cell Viability reagent (Promega, G7573) was added to each well using the Multidrop Combi Reagent Dispenser, followed by 15 min incubation on a shaker at room temperature. Finally, luminescence was read at 0.1 ms, with a gain of 3000 using the PHERAstar FS microplate reader (BMG Labtech).
# [4] = system: HMC-1-8 cells; experiment: Antiproliferation assay (CellTiter-Glo, 72 h), HMC-1-8; assay type: cell-based; conditions: IC50, median, HMC-1-8, 72 h, read-out: Antiproli HMC-1-8 [M] median
# Outline: as §2
# [5] = system: SUDHL5 cells; experiment: Antiproliferation assay (CellTiter-Glo, 72 h), SUDHL5; assay type: cell-based; conditions: IC50, median, SUDHL5, 72 h, read-out: Antiproli SUDHL5 [M] (median)
# Outline: as §2
# [6] = system: SUDHL5 cells; experiment: Induction of cytotoxicity (CellTiter-Glo, 5 h), SUDHL5; conditions: SUDHL5, 5 h
# Description: as §3, §4
# [7] = system: SUDHL10 cells; experiment: Induction of caspase-3/7 activity (Caspase-Glo 3/7), SUDHL10; assay type: cell-based; conditions: EC50, median, SUDHL10, 3 h treatment
# Outline: as §1
# [8] = read-out: Cytotox SUDHL10 [M] (median), IC50, median
# [9] = read-out: Cytotox SUDHL5 [M] (median), IC50, median
smiles,measurement,setting,value
CCOC(=O)c1c(CCCOc2cccc3cc(F)ccc23)c2ccc(Cl)c3c2n1CCC1(CC1)COCc1nn(C)c(CC)c1-3,"ring closure, yield of all isomers","from CCOC(=O)c1[nH]c2c(-c3c(COCC4(CCO)CC4)nn(C)c3CC)c(Cl)ccc2c1CCCOc1cccc2cc(F)ccc12, amine bond, PPh3/di-tert-butyl azodicarboxylate (Mitsunobu), THF, 83.2 mM",86.6%
CCOC(=O)c1c(CCCOc2cccc3cc(F)ccc23)c2ccc(Cl)c3c2n1CCC(F)(F)COCc1nn(C)c(CC)c1-3,"ring closure, yield of all isomers","from CCOC(=O)c1[nH]c2c(-c3c(COCC(F)(F)CCO)nn(C)c3CC)c(Cl)ccc2c1CCCOc1cccc2cc(F)ccc12, amine bond, triphenylphosphine / di-tert-butyl azodicarboxylate, THF",72.9%
CCOC(=O)c1c(CCCOc2cccc3ccccc23)c2ccc(Cl)c3c2n1CCC1(CC1)COCc1nn(C)c(CC)c1-3,"ring closure, yield of all isomers","from CCOC(=O)c1[nH]c2c(-c3c(COCC4(CCO)CC4)nn(C)c3CC)c(Cl)ccc2c1CCCOc1cccc2ccccc12, amine bond, triphenylphosphine / diisopropyl azodicarboxylate, THF, 98.3 mM",87.9%
CCOC(=O)c1c(CCCOc2cccc3cc(F)ccc23)c2ccc(Cl)c3c2n1CCN(S(=O)(=O)c1ccccc1[N+](=O)[O-])CCCc1nn(C)c(CC)c1-3,"ring closure, yield of all isomers","from CCOC(=O)c1[nH]c2c(-c3c(CCCN(CCOS(C)(=O)=O)S(=O)(=O)c4ccccc4[N+](=O)[O-])nn(C)c3CC)c(Cl)ccc2c1CCCOc1cccc2cc(F)ccc12, amine bond, NaH, DMF, 56.65 mM, 40.0 °C",70.4%
CCOC(=O)c1c(CCCOc2cccc3cc(F)ccc23)c2ccc(Cl)c3c2n1CC(F)(F)CCOCc1nn(C)c(C)c1-3,"ring closure, yield of all isomers","from CCOC(=O)c1[nH]c2c(-c3c(COCCC(F)(F)CO)nn(C)c3C)c(Cl)ccc2c1CCCOc1cccc2cc(F)ccc12, amine bond, triphenylphosphine / di-tert-butyl azodicarboxylate, THF, 32.0 h",46.9%
CCOC(=O)c1c(CCCOc2cccc3cc(F)ccc23)c2ccc(Cl)c3c2n1CC(F)(F)CCN(S(=O)(=O)c1ccccc1[N+](=O)[O-])Cc1nn(C)c(CC)c1-3,"ring closure, yield of all isomers","from CCOC(=O)c1[nH]c2c(-c3c(CN(CCC(F)(F)COS(=O)(=O)C(F)(F)F)S(=O)(=O)c4ccccc4[N+](=O)[O-])nn(C)c3CC)c(Cl)ccc2c1CCCOc1cccc2cc(F)ccc12, amine bond, NaH, DMF, 259.0 mM",41.3%
CCOC(=O)c1c(CCCO[Si](C)(C)C(C)(C)C)c2ccc(Cl)c3c2n1CCCCCCc1nn(C)c(CC)c1-3,"ring closure, yield of all isomers","from CCOC(=O)c1[nH]c2c(-c3c(CCCCCCBr)nn(C)c3CC)c(Cl)ccc2c1CCCO[Si](C)(C)C(C)(C)C, amine bond, Cs2CO3, DMF, 71.8 mM",99.5%
"CCOC(=O)c1c(CCCOc2cccc3cc(F)ccc23)c2ccc(Cl)c3c2n1C[C@@H]1C[C@@H]1COCc1nn(C)c(CC)c1-3 (single isomer, unassigned)","ring closure, yield of all isomers","from CCOC(=O)c1[nH]c2c(-c3c(COC[C@H]4C[C@H]4CO)nn(C)c3CC)c(Cl)ccc2c1CCCOc1cccc2cc(F)ccc12, amine bond, PPh3/di-tert-butyl azodicarboxylate (Mitsunobu), THF, 24.7 mM",84.6%
CCOC(=O)c1c(CCCOc2cccc3ccccc23)c2ccc(Cl)c3c2n1CC(F)(F)C(F)(F)COCc1nn(C)c(C)c1-3,"ring closure, yield of all isomers","from CCOC(=O)c1[nH]c2c(-c3c(COCC(F)(F)C(F)(F)COS(C)(=O)=O)nn(C)c3C)c(Cl)ccc2c1CCCOc1cccc2ccccc12, amine bond, Cs2CO3, DMF, 2.12 mM",7.6%
CCOC(=O)c1c(CCCOc2cccc3cc(F)ccc23)c2ccc(Cl)c3c2n1CC(F)(F)CCOCc1nn(C)c(CC)c1-3,"ring closure, yield of all isomers","from CCOC(=O)c1[nH]c2c(-c3c(COCCC(F)(F)CO)nn(C)c3CC)c(Cl)ccc2c1CCCOc1cccc2cc(F)ccc12, amine bond, PPh3/di-tert-butyl azodicarboxylate (Mitsunobu), THF, 23.5 mM",81.9%
CCOC(=O)c1c(CCCOc2cccc3ccccc23)c2ccc(Cl)c3c2n1C[C@@H]1CC[C@@H]1COCc1nn(C)c(C)c1-3,"ring closure, yield of all isomers","from CCOC(=O)c1[nH]c2c(-c3c(COC[C@H]4CC[C@H]4CO)nn(C)c3C)c(Cl)ccc2c1CCCOc1cccc2ccccc12, amine bond, PPh3/di-tert-butyl azodicarboxylate, THF, 14.5 mM",34.5%
CCOC(=O)c1c(CCCOc2cccc3cc(F)ccc23)c2ccc(Cl)c3c2n1CCCCN(C)Cc1nn(C)c(CC)c1-3,"ring closure, yield of all isomers","from CCOC(=O)c1c(CCCOc2cccc3cc(F)ccc23)c2ccc(Cl)c(-c3c(CBr)nn(C)c3CC)c2n1CCCCNC, amine bond, cesium carbonate, DMF, 214.0 mM, 60.0 °C",22%
"CCc1c2c(nn1C)COCC(O)CCn1c(C(=O)O)c(CCCOc3cccc4cc(F)ccc34)c3ccc(Cl)c-2c31 (stereo not drawn) [Example 99, 4-chloro-3-ethyl-7-{3-[(6-fluoronaphthalen-1-yl)oxy]propyl}-12-hydroxy-2-methyl-2,10,11,12,13,15-hexahydropyrazolo[4′,3′:9,10][1,6]oxazacycloundecino[8,7,6-hi]indole-8-carboxylic acid-N-ethylethanamine salt]",EC50,[1],190 nM
same,IC50,"[2]; Homo sapiens, AMO1, 72 h",5.2e-07 M
same,IC50,[3]; [8],2.3e-07 M
same,IC50,[4]; 72 h,5.9e-06 M
same,IC50,"[5]; Homo sapiens, SU-DHL-5, 72 h",2.6e-07 M
same,IC50,[6]; [9],2.7e-07 M
same,EC50,[7],180 nM
"CCc1c2c(nn1C)CN(C)CCC(F)(F)Cn1c(C(=O)O)c(CCCOc3cccc4cc(F)ccc34)c3ccc(Cl)c-2c31 (racemic) [Example 129, (rac)-4-chloro-3-ethyl-11,11-difluoro-7-{3-[(6-fluoronaphthalen-1-yl)oxy]propyl}-2,14-dimethyl-10,11,12,13,14,15-hexahydro-2H-pyrazolo[3′,4′:8,9][1,6]diazacycloundecino[10,11,1-hi]indole-8-carboxylic acid]",EC50,"[1]; Homo sapiens, SU-DHL-5, 3 h",300 nM
same,IC50,"[2]; Homo sapiens, AMO1, 72 h",8.3e-07 M
same,IC50,"[3]; Homo sapiens, SU-DHL10, 5 h, read-out: Cytotox SUDHL10 [M] (median), IC50, median",8.9e-07 M
same,IC50,[4]; 72 h,5.2e-06 M
same,IC50,"[5]; Homo sapiens, SU-DHL-5, 72 h",4.5e-07 M
same,IC50,"[6]; Homo sapiens, SU-DHL-5, 5 h, read-out: Cytotox SUDHL5 [M] (median), IC50, median",3.3e-07 M
same,EC50,"[7]; Homo sapiens, SU-DHL10, 3 h",740 nM
"CCc1c2c(nn1C)COCCC(F)(F)Cn1c(C(=O)O)c(CCCOc3cccc4cc(F)ccc34)c3ccc(Cl)c-2c31 (single isomer, unassigned) [Example 98, (+)-4-chloro-3-ethyl-11,11-difluoro-7-{3-[(6-fluoronaphthalen-1-yl)oxy]propyl}-2-methyl-2,10,11,12,13,15-hexahydropyrazolo[4′,3′:9,10][1,6]oxazacycloundecino[8,7,6-hi]indole-8-carboxylic acid]",EC50,[1]; listed as 098,6200 nM
same,IC50,[2]; listed as 098,6.9e-06 M
same,IC50,"[3]; read-out: Cytotox SUDHL10 [M] (median), IC50, median, listed as 098",6.3e-06 M
same,IC50,[4]; listed as 098,5.9e-06 M
same,IC50,[5]; listed as 098,2.2e-06 M
same,IC50,"[6]; read-out: Cytotox SUDHL5 [M] (median), IC50, median, listed as 098",7.3e-06 M
same,EC50,[7]; listed as 098,5000 nM
"CCc1c2c(nn1C)CCCN(CC(F)F)CCn1c(C(=O)O)c(CCCOc3cccc4cc(F)ccc34)c3ccc(Cl)c-2c31 [Example 119, (+)-4-chloro-12-(2,2-difluoroethyl)-3-ethyl-7-{3-[(6-fluoronaphthalen-1-yl)oxy]propyl}-2-methyl-10,11,12,13,14,15-hexahydro-2H-pyrazolo[3′,4′:8,9][1,4]diazacycloundecino[10,11,1-hi]indole-8-carboxylic acid N-ethylethanamine salt]",EC50,[1],110 nM
same,IC50,[2],3.6e-07 M
same,IC50,[3]; [8],2.9e-07 M
same,IC50,[4],1.3e-06 M
same,IC50,[5],3.1e-07 M
same,IC50,[6]; [9],1.4e-07 M
same,EC50,[7],210 nM
CCOC(=O)c1c(CCCOc2cccc3cc(F)ccc23)c2ccc(Cl)c3c2n1CCCCNCc1nn(C)c(C)c1-3,"ring closure, yield of all isomers","from CCOC(=O)c1c(CCCOc2cccc3cc(F)ccc23)c2ccc(Cl)c(-c3c(CBr)nn(C)c3C)c2n1CCCCN, amine bond, Cs2CO3, DMF, 205.0 mM, 60.0 °C",6.6%
"CCc1c2c(nn1C)CCCN(CC(F)F)CCn1c(C(=O)O)c(CCCOc3cccc4cc(F)ccc34)c3ccc(Cl)c-2c31 (racemic) [Example 118, (rac)-4-chloro-12-(2,2-difluoroethyl)-3-ethyl-7-{3-[(6-fluoro-1-naphthyl)oxy]propyl}-2-methyl-10,11,12,13,14,15-hexahydro-2H-pyrazolo[3′,4′:8,9][1,4]diazacycloundecino[10,11,1-hi]indole-8-carboxylic acid]",EC50,[1],330 nM
same,IC50,"[2]; Homo sapiens, AMO1, 72 h",5.1e-07 M
same,IC50,[3]; [8],6.4e-07 M
same,IC50,[4],2.5e-06 M
same,IC50,[5],5.5e-07 M
same,IC50,[6]; [9],5.5e-07 M
same,EC50,[7],510 nM
